{"source": "patent US7744860B2", "about": "“Reduced bioirritant composition” (Minu LLC, priority 1999, dated 2010)", "key": {"[1]": {"assay": "electroretinogram (ERG) after ascorbic acid administration", "assay_type": "in vivo, Rats", "procedure": "The effect of pH neutralized and non-neutralized ascorbic acid administered topically to eyes at various concentrations was determined. Rats were subject to induced corneal neovascularization as previously described and administered pH neutralized and non-neutralized ascorbic acid and saline (control) at the same concentrations as previously described. An electroretinogram (ERG) was performed to evaluate the eye's electrical responses to a flash of light using an electrode placed on the surface of the eye (e.g., cornea) as known to one skilled in the art."}, "[2]": {"system": "corneal neovascularization", "assay": "silver nitrate cauterization induced corneal neovascularization, topical treatment", "assay_type": "in vivo, male Long Evans pigmented rats", "details": "for Degree of Corneal Neovascularization, OD / Degree of Corneal Neovascularization, OS / mean inhibition of neovascularization / mean percent of neovascularization relative to total corneal area: topical twice a day for seven days; for Degree of Corneal Neovascularization, OD / Degree of Corneal Neovascularization, OS: individual subjects", "procedure": "Neovascularization was induced in all eyes using silver nitrate cauterization. The animals were first anesthetized by intraperitoneal injection of a mixture of ketamine hydrochloride (25 mg/kg) with xylazine hydrochloride (5 mg/kg). The cornea was then anesthetized by a drop of 0.5% proparacaine hydrochloride and allowed to dry. One cornea of each animal was cauterized by pressing an applicator stick (diameter of 1.8 mm) coated with 75% silver nitrate/25% potassium nitrate (Arzol Chemical Co., Keen, N.H.) to the central cornea for ten seconds (using a stopwatch) under the operating microscope. Excess silver nitrate was removed by rinsing the eyes with 5 ml balanced salt solution. To increase the reproducibility of the injuries, one investigator cauterized all animals. Following cauterization, the animals were randomly divided into six groups to eliminate any potential bias in the degree of burns within the different groups. Two drops of each drug were applied topically to each cornea immediately following cauterization; treatments were administered two times per day for seven days.\nGroup 1 (number of animals (n)=8) received 100 mg/ml pH non-neutralized ascorbic acid. All remaining experimental groups received ascorbic acid neutralized to about pH 7 as previously described in the following concentrations: Group 2 (n=8) received 100 mg/ml (10%^w/v) neutralized ascorbic acid; Group 3 (n=8) received 50 mg/ml (5%^w/v) neutralized ascorbic acid; Group 4 (n=8) received 10 mg/ml (1%^w/v) neutralized ascorbic acid; Group 5 (n=8) received 5 mg/ml neutralized ascorbic acid (0.5%^w/v); Group 6 (n=8) received 1 mg/ml neutralized ascorbic acid (0.1%^w/v); Group 7 (n=8) received 500 μg/ml neutralized ascorbic acid (0.05%^w/v); Group 8 (n=8) received 250 μg/ml neutralized ascorbic acid (0.025%^w/v). Group 9 (n=8) received two drops of saline and served as the control. All concentrations of ascorbic acid were titrated with saline.\nThe presence of new vessels (neovascularization) and the extent of new vessel formation was assessed by slit lamp photography and in some embodiments, by histology. Inhibition of vessel proliferation was evaluated by measuring vessel progression from the outer cornea (corneal limbus) into the cornea. As previously described, it will be appreciated that any reduction of new vessel proliferation and/or regression of existing vessels is therapeutic, and that complete inhibition and/or regression is not required, and also that reduction includes regression of existing vessels.\nAll animals were anesthetized as described above and their corneas evaluated by slit-lamp microscopy on the third and sixth days. Corneal photographs were taken with ×25 magnification using a camera attached to the slit-lamp microscope (Topcon SL-7E, Tokyo Japan) on the seventh day. Neovascularization was evaluated by an examiner who was blinded as to the treatment groups to minimize the observer bias.\nCorneal neovascularization was assessed by scanning (Cano scan 9900F, Canon, Tokyo Japan) the slit lamp photographs into high resolution digital images. The corneal surface covered with neovascular vessels was measured on the photographs as the percentage of the total area of the cornea. The percentage area of corneal neovascularization was determined by outlining the areas with corneal vessels and comparing these to the total corneal surface using image j software (Wayne Rasband at the Research Services Branch,-National Institute of Mental Health, Bethesda Md.). The area of neovascularization was measured in terms of pixels and its ratio to the entire corneal area was determined as the percentage of corneal neovascularization. The extent of the scar was also evaluated by calculating the percentage of the corneal surface that was covered by the scar. A drawing of corneal blood vessels was made to compare with digital photos and ensure that no vascular area was omitted during calculation of percent area. […]"}, "[3]": {"details": "100 mg/ml, mean ± standard deviation, n = 8"}, "[4]": {"details": "100 mg/ml, listed as pH neutralized ascorbic acid"}}, "note": "Several values for one entry are separate records, joined by “and”; a condition that tells them apart may be missing. Equal entries are not always repeated. Entries after “also recorded” stand apart in the source; their conditions may differ.", "data": [{"smiles": "O=C1O[C@H]([C@@H](O)CO)C(O)=C1O", "note": "[Ascorbic Acid Non pH Neutralized, ascorbic acid, reference compound]", "values": [{"measurement": "decrease in ERG", "setting": "[1]; 1 mg/ml, n=6", "result": "no significant decrease in ERG"}, {"measurement": "decrease in ERG", "setting": "[1]; 10 mg/ml, n=6", "result": "no significant decrease in ERG"}, {"measurement": "decrease in ERG", "setting": "[1]; 100 mg/ml, two eyes, listed as non-pH neutralized ascorbic acid", "result": "60% and 70%"}, {"measurement": "ocular findings (retinal detachment, cataracts, vitreous haze, retinal edema)", "setting": "[1]; 100 mg/ml, listed as non-pH neutralized ascorbic acid", "result": "partial retinal detachment"}, {"measurement": "Degree of Corneal Neovascularization, OD", "setting": "[2]; 100 mg (100 mg/ml)", "result": "10% and 25% and 20% and 0%"}, {"measurement": "Degree of Corneal Neovascularization, OS", "setting": "[2]; 100 mg (100 mg/ml)", "result": "33% and 30% and 22% and 0%"}, {"measurement": "mean inhibition of neovascularization", "setting": "[2]; 100 mg/ml", "result": "about 81%"}, {"measurement": "mean percent of neovascularization relative to total corneal area", "setting": "[2]; [3]", "result": "AVE = 17.5 ± 12.8% (n = 8)"}, {"measurement": "mean percent of neovascularization relative to total corneal area", "setting": "[2]; 100 mg/ml, mean ± standard deviation, n = 8, listed as ascorbic acid non-pH neutralized", "result": "about 19%"}, {"measurement": "mean percent of neovascularization relative to total corneal area", "setting": "[2]; 100 mg/ml, mean ± standard deviation, n = 8, listed as non-neutralized ascorbic acid", "result": 17.5, "unit": "%"}, {"measurement": "mean inhibition of neovascularization", "setting": "[2]; 100 mg/ml, listed as non-neutralized ascorbic acid", "result": 82.5, "unit": "%"}]}, {"smiles": "O=C1O[C@H]([C@@H](O)CO)C(O)=C1O", "note": "[Ascorbic Acid pH Neutralized, ascorbic acid]", "values": [{"measurement": "decrease in ERG", "setting": "[1]; 1 mg/ml, n=6", "result": "no significant decrease in ERG"}, {"measurement": "decrease in ERG", "setting": "[1]; 10 mg/ml, n=6", "result": "no significant decrease in ERG"}, {"measurement": "decrease in ERG", "setting": "[1]; 100 mg/ml, two eyes, listed as pH neutralized ascorbic acid", "result": 100, "unit": "%"}, {"measurement": "ocular findings (retinal detachment, cataracts, vitreous haze, retinal edema)", "setting": "[1]; [4]", "result": "neither cataracts nor retinal detachment; also recorded: vitreous haze and retinal edema"}, {"measurement": "Degree of Corneal Neovascularization, OD", "setting": "[2]; 250 μg (250 μg/ml)", "result": "68% and 69% and 70% and 61%"}, {"measurement": "Degree of Corneal Neovascularization, OS", "setting": "[2]; 250 μg (250 μg/ml)", "result": "65% and 63% and 66% and 48%"}, {"measurement": "mean inhibition of neovascularization", "setting": "[2]; 250 μg/ml", "result": "about 33%"}, {"measurement": "mean percent of neovascularization relative to total corneal area", "setting": "[2]; 250 μg/ml, FIG. 2", "result": "about 67%"}, {"measurement": "mean inhibition of neovascularization", "setting": "[2]; 250 μg/ml, listed as neutralized ascorbic acid", "result": "differences were not significant"}, {"measurement": "Degree of Corneal Neovascularization, OD", "setting": "[2]; 500 μg (500 μg/ml)", "result": "54% and 69% and 70% and 61%"}, {"measurement": "Degree of Corneal Neovascularization, OS", "setting": "[2]; 500 μg (500 μg/ml)", "result": "50% and 63% and 66% and 48%"}, {"measurement": "mean inhibition of neovascularization", "setting": "[2]; 500 μg/ml", "result": "about 40%"}, {"measurement": "mean percent of neovascularization relative to total corneal area", "setting": "[2]; 500 μg/ml, mean ± standard deviation, n = 8", "result": "mean = 60.1 ± 8.5% (n = 8)"}, {"measurement": "mean percent of neovascularization relative to total corneal area", "setting": "[2]; 500 μg/ml, mean ± standard deviation, n = 8, listed as ascorbic acid pH neutralized", "result": "about 60%"}, {"measurement": "mean percent of neovascularization relative to total corneal area", "setting": "[2]; 500 μg/ml, mean ± standard deviation, n = 8, listed as neutralized ascorbic acid", "result": 60.1, "unit": "%"}, {"measurement": "mean inhibition of neovascularization", "setting": "[2]; 500 μg/ml, listed as neutralized ascorbic acid", "result": 39.9, "unit": "%"}, {"measurement": "Degree of Corneal Neovascularization, OD", "setting": "[2]; 1 mg (1 mg/ml)", "result": "49% and 15% and 48% and 5%"}, {"measurement": "Degree of Corneal Neovascularization, OS", "setting": "[2]; 1 mg (1 mg/ml)", "result": "47% and 27% and 29% and 17%"}, {"measurement": "mean inhibition of neovascularization", "setting": "[2]; 1 mg/ml", "result": "about 69%"}, {"measurement": "mean percent of neovascularization relative to total corneal area", "setting": "[2]; 1 mg/ml, mean ± standard deviation", "result": "mean = 29.6 ± 16.9%"}, {"measurement": "mean percent of neovascularization relative to total corneal area", "setting": "[2]; 1 mg/ml, mean ± standard deviation, listed as ascorbic acid pH neutralized", "result": "about 31%"}, {"measurement": "mean inhibition of neovascularization", "setting": "[2]; 1 mg/ml, listed as neutralized ascorbic acid", "result": "significant inhibition compared to control eyes"}, {"measurement": "Degree of Corneal Neovascularization, OD", "setting": "[2]; 5 mg (5 mg/ml)", "result": "20% and 35% and 0% and 60%"}, {"measurement": "Degree of Corneal Neovascularization, OS", "setting": "[2]; 5 mg (5 mg/ml)", "result": "60% and 26% and 30% and 0%"}, {"measurement": "mean inhibition of neovascularization", "setting": "[2]; 5 mg/ml", "result": "about 70%"}, {"measurement": "mean percent of neovascularization relative to total corneal area", "setting": "[2]; 5 mg/ml, mean ± standard deviation, n = 8", "result": "mean = 28.9 ± 23.1% (n = 8)"}, {"measurement": "mean percent of neovascularization relative to total corneal area", "setting": "[2]; 5 mg/ml, mean ± standard deviation, n = 8, listed as ascorbic acid pH neutralized", "result": "about 30%"}, {"measurement": "mean inhibition of neovascularization", "setting": "[2]; 5 mg/ml, listed as neutralized ascorbic acid", "result": "significant inhibition compared to control eyes"}, {"measurement": "Degree of Corneal Neovascularization, OD", "setting": "[2]; 10 mg (10 mg/ml)", "result": "0% and 31% and 20% and 22%"}, {"measurement": "Degree of Corneal Neovascularization, OS", "setting": "[2]; 10 mg (10 mg/ml)", "result": "0% and 27% and 15% and 26%"}, {"measurement": "mean inhibition of neovascularization", "setting": "[2]; 10 mg/ml", "result": "about 81%"}, {"measurement": "mean percent of neovascularization relative to total corneal area", "setting": "[2]; 10 mg/ml, mean ± standard deviation, n = 8", "result": "mean = 17.6 ± 11.9% (n = 8)"}, {"measurement": "mean percent of neovascularization relative to total corneal area", "setting": "[2]; 10 mg/ml, mean ± standard deviation, n = 8, listed as ascorbic acid pH neutralized", "result": "about 19%"}, {"measurement": "mean inhibition of neovascularization", "setting": "[2]; 10 mg/ml, listed as neutralized ascorbic acid", "result": "significant inhibition compared to control eyes"}, {"measurement": "Degree of Corneal Neovascularization, OD", "setting": "[2]; 50 mg (50 mg/ml)", "result": "10% and 15% and 32% and 3%"}, {"measurement": "Degree of Corneal Neovascularization, OS", "setting": "[2]; 50 mg (50 mg/ml)", "result": "5% and 35% and 22% and 0%"}, {"measurement": "mean inhibition of neovascularization", "setting": "[2]; 50 mg/ml", "result": "about 83.5%"}, {"measurement": "mean percent of neovascularization relative to total corneal area", "setting": "[2]; 50 mg/ml, mean ± standard deviation, n = 8", "result": "mean = 15.2 ± 13.3% (n = 8)"}, {"measurement": "mean percent of neovascularization relative to total corneal area", "setting": "[2]; 50 mg/ml, mean ± standard deviation, n = 8, listed as ascorbic acid pH neutralized", "result": "about 16.5%"}, {"measurement": "mean inhibition of neovascularization", "setting": "[2]; 50 mg/ml, listed as neutralized ascorbic acid", "result": "significant inhibition compared to control eyes"}, {"measurement": "Degree of Corneal Neovascularization, OD", "setting": "[2]; 100 mg (100 mg/ml)", "result": "0% and 31% and 15% and 28%"}, {"measurement": "Degree of Corneal Neovascularization, OS", "setting": "[2]; 100 mg (100 mg/ml)", "result": "54% and 5% and 3% and 0%"}, {"measurement": "mean inhibition of neovascularization", "setting": "[2]; 100 mg/ml", "result": "about 82%"}, {"measurement": "mean percent of neovascularization relative to total corneal area", "setting": "[2]; [3]", "result": "AVE = 17.0 ± 19.3% (n = 8)"}, {"measurement": "mean percent of neovascularization relative to total corneal area", "setting": "[2]; 100 mg/ml, mean ± standard deviation, n = 8, listed as ascorbic acid pH neutralized", "result": "about 18%"}, {"measurement": "mean percent of neovascularization relative to total corneal area", "setting": "[2]; 100 mg/ml, mean ± standard deviation, n = 8, listed as pH neutralized ascorbic acid", "result": 17.0, "unit": "%"}, {"measurement": "mean inhibition of neovascularization", "setting": "[2]; [4]", "result": 83.0, "unit": "%"}, {"measurement": "inhibition of corneal neovascularization", "setting": "[2]; concentrations ranging from 100 mg/ml to 500 μg/ml", "result": "significantly inhibited corneal neovascularization"}]}]}
